Source: article PMC9297976 (Journal of Applied Toxicology, 2021)

Columns and labels:
[1] = system: Japanese medaka (Oryzias latipes); test: Fish Short‐Term Reproduction Assay; format: in vivo; conditions: for GSI Female / GSI Male / HSI Female / HSI Male / Length Female / Length Male / Weight Female / Weight Male: completion of exposure
[2] = target: T1, medaka Esr1 (mEsr1) (Oryzias latipes, UniProt P50241); test: cell-based; set-up: species or system Japanese medaka (Oryzias latipes); conditions: mode of action in which EC50 or PC10 was obtained in RGA
T1 sequence (P50241 1-620): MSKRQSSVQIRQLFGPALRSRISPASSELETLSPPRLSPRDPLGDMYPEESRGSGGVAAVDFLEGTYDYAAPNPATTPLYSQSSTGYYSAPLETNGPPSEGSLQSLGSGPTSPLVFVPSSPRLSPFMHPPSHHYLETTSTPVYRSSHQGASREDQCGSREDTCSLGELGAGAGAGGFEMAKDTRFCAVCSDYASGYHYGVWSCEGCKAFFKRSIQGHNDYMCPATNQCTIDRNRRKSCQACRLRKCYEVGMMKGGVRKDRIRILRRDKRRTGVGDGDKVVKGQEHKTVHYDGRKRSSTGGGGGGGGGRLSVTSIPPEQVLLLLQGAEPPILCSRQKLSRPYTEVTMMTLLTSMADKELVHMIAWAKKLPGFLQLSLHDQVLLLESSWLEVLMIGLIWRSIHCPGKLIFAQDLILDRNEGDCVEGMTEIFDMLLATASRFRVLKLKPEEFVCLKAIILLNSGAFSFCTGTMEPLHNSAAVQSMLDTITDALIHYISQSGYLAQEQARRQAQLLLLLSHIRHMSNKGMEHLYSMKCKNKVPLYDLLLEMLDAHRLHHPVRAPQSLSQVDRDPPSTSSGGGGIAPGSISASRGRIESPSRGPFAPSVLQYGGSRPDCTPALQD

[3] = target: T2, medaka ARβ (mArβ) (Oryzias latipes, UniProt D1MV73); test: Medaka ARβ reporter gene assay, agonist assay; format: cell-based, Japanese medaka (Oryzias latipes); conditions: MAC = 1.0 × 10^−4 M
T2 sequence (D1MV73 1-744): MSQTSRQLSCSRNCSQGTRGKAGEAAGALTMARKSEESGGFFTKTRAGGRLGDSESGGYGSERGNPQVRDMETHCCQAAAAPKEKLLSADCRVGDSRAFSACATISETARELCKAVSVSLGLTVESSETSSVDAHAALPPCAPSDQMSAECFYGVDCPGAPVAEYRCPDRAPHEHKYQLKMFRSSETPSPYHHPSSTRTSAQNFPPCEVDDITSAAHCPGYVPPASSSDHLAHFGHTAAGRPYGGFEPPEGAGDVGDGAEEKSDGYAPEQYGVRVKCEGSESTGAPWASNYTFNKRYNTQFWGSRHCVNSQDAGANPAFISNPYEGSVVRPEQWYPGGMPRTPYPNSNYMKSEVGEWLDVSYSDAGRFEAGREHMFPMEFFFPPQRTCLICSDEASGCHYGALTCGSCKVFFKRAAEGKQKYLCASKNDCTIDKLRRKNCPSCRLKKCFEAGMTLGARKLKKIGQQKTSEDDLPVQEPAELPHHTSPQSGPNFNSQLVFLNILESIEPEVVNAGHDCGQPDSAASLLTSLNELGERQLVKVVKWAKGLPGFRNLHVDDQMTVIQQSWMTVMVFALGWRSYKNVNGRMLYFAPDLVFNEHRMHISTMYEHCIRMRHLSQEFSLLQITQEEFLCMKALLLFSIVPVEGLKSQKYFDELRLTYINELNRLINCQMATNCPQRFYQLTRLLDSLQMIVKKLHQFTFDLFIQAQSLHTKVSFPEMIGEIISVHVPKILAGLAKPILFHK

[4] = target: T2, medaka ARβ (mArβ); test: Medaka ARβ reporter gene assay, antagonist assay; format: cell-based, Japanese medaka (Oryzias latipes)
[5] = system: Japanese medaka; conditions: 12 h after fertilization to 101 days of age; ref Seki, Yokota, Matsubara, et al. (2003); cited from earlier work
[6] = target: T1, medaka Esr1 (mEsr1); test: Medaka Esr1 reporter gene assay, antagonist assay; format: cell-based, Japanese medaka (Oryzias latipes); conditions: E2 spiked at 1.0 nM (B); MAC = 1.0 × 10^−5 M
[7] = 940 μg/L measured, 21 d, sig. ↓ vs control
[8] = measured concentration 58.4 μg/L
[9] = measured concentration 227 μg/L
[10] = measured concentration 940 μg/L

## CCC(C)(C)c1ccc(O)cc1 [Chemical 4tPP, 4‐tert‐Pentylphenol]
[1]; 58.4 μg/L measured, 21 d
  Fertility rate: 94 ± 1.7%
  Hepatic VTG, female: 2,930 ± 737 ng/mg‐liver
  Mortality: 4.2%
  Mortality, number of dead fish: 1
  Number of fertilized eggs (per female per day): 20 ± 3.2
  Number of total eggs (per female per day): 21 ± 3.1
  SSC female (joint plates with papillary processes): 0 ± 0
[1]; 58.4 μg/L measured, 21 d, sig. ↑ vs control
  Hepatic VTG, male: 970 ± 858 ng/mg‐liver
[1]; 227 μg/L measured, 21 d
  Fertility rate: 94 ± 2.5%
  Hepatic VTG, female: 3,070 ± 686 ng/mg‐liver
  Mortality: 4.2%
  Mortality, number of dead fish: 1
  Number of fertilized eggs (per female per day): 19 ± 2.9
  Number of total eggs (per female per day): 20 ± 2.7
  SSC female (joint plates with papillary processes): 0 ± 0
[1]; 227 μg/L measured, 21 d, sig. ↑ vs control
  Hepatic VTG, male: 3,700 ± 2,300 ng/mg‐liver
[1]; 940 μg/L measured, 21 d
  Fertility rate: 81 ± 8.9%
  Mortality: 13%
  Mortality, number of dead fish: 3
  SSC female (joint plates with papillary processes): 0 ± 0
[1]; 940 μg/L measured, 21 d, sig. ↑ vs control
  Hepatic VTG, female: 8,100 ± 3,340 ng/mg‐liver
[1]; [7]
  Number of fertilized eggs (per female per day): 13 ± 3.5
  Number of total eggs (per female per day): 16 ± 4.7
[1]; 21 d
  Change of hepatic VTG levels in females (in words): significant increase
  Fecundity, number of total eggs (in words): statistically significant decrease
  LOEC, elevated hepatic VTG in males: 58.4 µg/L
[1]; LOEC on reproduction (fecundity and/or fertility)
  LOECREPRO: 940 µg/L
[1]; Oryzias latipes, 504 h, read-out: LOECmVTG
  minimal effective concentration: 0.0584 µg/mL
[1]; chemicals with significant decrease of number of total eggs
  Fertility rate (in words): no significant effect
[1]; concentrations without overt toxicity
  LOECREPRO (reduction in fecundity or fertility): 940 µg/L
[1]; lowest observed effect concentration on mortality
  LOECTOX: ND (>940) μg/L
[1]; [8]
  GSI Female: 10.0 ± 0.6%
  GSI Male: 0.89 ± 0.11%
  HSI Female: 4.3 ± 0.50%
  HSI Male: 2.3 ± 0.18%
  Length Female: 36.0 ± 0.5 mm
  Length Male: 37.8 ± 1.2 mm
  Weight Female: 558 ± 48 mg
  Weight Male: 590 ± 39 mg
[1]; [9]
  GSI Female: 9.9 ± 1.0%
  GSI Male: 0.73 ± 0.16%
  HSI Female: 4.2 ± 0.44%
  HSI Male: 2.2 ± 0.33%
  Length Female: 35.5 ± 0.7 mm
  Length Male: 36.2 ± 0.6 mm
  Weight Female: 523 ± 48 mg
  Weight Male: 546 ± 23 mg
[1]; [10]
  GSI Female: 8.9 ± 1.2%
  GSI Male: 0.73 ± 0.13%
  HSI Female: 3.9 ± 0.73%
  HSI Male: 3.6 ± 0.50%
  Length Female: 36.1 ± 1.6 mm
  Length Male: 35.6 ± 0.8 mm
  Weight Female: 588 ± 130 mg
  Weight Male: 509 ± 47 mg
[2]
  In vitro positive: Esr: Esr
[3]
  Agonistic activity: NE (MAC = 1.0 × 10^−4 M)
[4]; 11‐KT spiked at 50 nM (D)
  Antagonistic activity IC30: IC30 = 1.7 × 10^−5 M^(D)
[4]; mode of action in which IC50 or IC30 was obtained in RGA
  In vitro positive: aAr: aAr
[4]; transcriptional activity on mArβ by 11KT
  Antagonistic activity on mArβ (in words): inhibitory potency
[5]
  LOEC on abnormal sexual differentiation: 224 µg/L
  LOEC on hepatic VTG induction: ≤ 51.1 µg/L
  LOEC on reproductive impairment: 224 µg/L
[6]
  Antagonistic activity: NE (MAC = 1.0 × 10^−5 M)^(B)
